Some results are limits rather than exact numbers.

The values that follow come from patent US20060258598A1, “Alpha-keto carbonyl calpain inhibitors” (priority 2003, published 2006).

The target in assay [1] is T1, human μ-calpain (Homo sapiens, UniProt P07384).
T1 construct: purchased Calbiochem
T1 sequence (P07384 1-714): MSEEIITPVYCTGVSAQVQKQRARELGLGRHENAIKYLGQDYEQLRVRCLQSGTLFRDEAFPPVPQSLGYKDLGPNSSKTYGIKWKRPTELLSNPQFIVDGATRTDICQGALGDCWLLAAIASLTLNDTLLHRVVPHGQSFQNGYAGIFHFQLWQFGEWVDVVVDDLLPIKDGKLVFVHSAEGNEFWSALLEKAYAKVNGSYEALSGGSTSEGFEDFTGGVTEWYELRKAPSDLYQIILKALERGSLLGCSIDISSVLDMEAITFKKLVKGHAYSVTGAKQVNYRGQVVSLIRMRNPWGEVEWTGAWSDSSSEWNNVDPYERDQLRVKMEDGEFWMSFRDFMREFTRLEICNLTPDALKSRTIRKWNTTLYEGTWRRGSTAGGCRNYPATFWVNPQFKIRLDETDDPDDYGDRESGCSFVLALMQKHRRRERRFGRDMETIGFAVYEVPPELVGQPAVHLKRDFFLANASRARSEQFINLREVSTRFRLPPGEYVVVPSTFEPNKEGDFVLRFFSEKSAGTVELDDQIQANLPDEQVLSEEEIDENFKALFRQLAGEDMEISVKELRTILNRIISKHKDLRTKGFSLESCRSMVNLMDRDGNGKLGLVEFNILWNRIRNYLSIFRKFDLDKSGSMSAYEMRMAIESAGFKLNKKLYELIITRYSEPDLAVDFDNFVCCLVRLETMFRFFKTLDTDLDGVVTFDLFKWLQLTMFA
T1 sequence (P04632 1-268 partner): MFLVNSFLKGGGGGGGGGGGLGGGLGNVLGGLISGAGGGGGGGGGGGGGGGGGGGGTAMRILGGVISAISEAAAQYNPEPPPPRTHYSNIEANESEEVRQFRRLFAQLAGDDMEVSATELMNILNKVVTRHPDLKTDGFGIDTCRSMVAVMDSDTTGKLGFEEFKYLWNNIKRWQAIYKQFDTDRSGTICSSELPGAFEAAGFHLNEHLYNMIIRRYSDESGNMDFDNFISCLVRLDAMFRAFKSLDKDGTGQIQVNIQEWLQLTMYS
The experiment in a line: Enzymatic calpain inhibition assay. The assay is classed as biochemical. The settings on record: substrate Suc-Leu-Tyr-AMC, read-out: Calp I IC50. In a few lines: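 Human μ-calpain (0.5 μg) with 250 μM Suc-Leu-Tyr-AMC in 100 mM imidazole pH 7.5, 5 mM cysteine, 5 mM CaCl2. AMC fluorescence (ex 360/em 440 nm) followed 30 min at 30 °C; IC50 determined graphically from initial velocities versus inhibitor concentration.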

Assay [2] deals with cellular calpains in C2C12 myoblasts. The experiment in a line: Calpain inhibition assay in C2C12 myoblasts. The assay is classed as cell-based. The following applies: 2 h incubation, calcium ionophore Br-A-23187, read-out: Calp I IC50 Myoblast. In a few lines:
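Confluent C2C12 myoblasts in fusion medium (DMEM, 5% horse serum) exposed to compound for 2 h at 37 °C, then loaded with 400 μM Suc-Leu-Tyr-AMC for 20 min at room temperature in buffer with 4 mM CaCl2, HEPES pH 7.25. Calpains activated by Br-A-23187 ionophore (20 μM in added buffer); AMC fluorescence read each minute for 60 min at 37 °C to derive IC50.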

In assay [3] the target is T2, 20S Proteasome (Oryctolagus cuniculus, UniProt G1T4Q9).
T2 sequence (G1T4Q9 1-263): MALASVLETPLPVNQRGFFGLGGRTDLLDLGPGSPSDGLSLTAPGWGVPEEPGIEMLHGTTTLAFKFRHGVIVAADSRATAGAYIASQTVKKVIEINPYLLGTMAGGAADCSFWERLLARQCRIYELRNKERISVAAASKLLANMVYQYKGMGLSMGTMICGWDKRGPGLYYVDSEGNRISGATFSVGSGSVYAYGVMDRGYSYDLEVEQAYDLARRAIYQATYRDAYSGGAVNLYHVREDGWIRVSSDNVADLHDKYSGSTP
Description: 20S Proteasome assay. Format: biochemical, Rabbit. The following applies: substrate Suc-Leu-Leu-Val-Tyr-AMC; read-out: 20S Prot IC50. As to the method:
25 μl of a reaction buffer containing 400 μM of the fluorogenic substrate Suc-Leu-Leu-Val-Tyr-AMC (Bachem) are dispensed per well of a white microtiter plate. Test compounds dissolved in 0.5 μl DMSO are added. To start the reaction; 25 μl of reaction buffer containing 35 ng of enzyme (20S Proteasome, Rabbit, Calbiochem) are added. The increase in fluorescence (excitation at 360 nm; emission at 440 nm) is measured over 30 min at 30° C. at 30″. The IC50's are then determined from the slopes.

For assay [4], the system named is Primary fibroblasts from donors with Friedreich Ataxia (FRDA). The experiment in a line: BSO assay (cell viability under BSO-induced oxidative stress). The assay is classed as cell-based, human. The settings on record: 24 h preincubation, 1 mM BSO. In a few lines: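 FRDA patient primary fibroblasts were pretreated with compounds for 24 h, then exposed to 1 mM BSO (final) until toxicity appeared in BSO-only controls (typically 16–48 h). Viability was read by calcein AM (1.2 μM)/ethidium homodimer (4 μM) staining, 60 min RT, fluorescence 485/525 nm.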

Assay [5] relates to experimental muscular dystrophy in hamster. The following applies: cited from earlier work.
In assay [6] the test system is mdx mouse. The experiment in a line: Longterm treatment of mdx mice (model for Duchenne Muscular Dystrophy). The assay is classed as in vivo. The following applies: 3 week old mice, treatment period of 4 weeks. As to the method: The mdx mouse is a well established animal model for Duchenne Muscular Dystrophy (Bulfield G., Siller W. G., Wight P. A., Moore K. J., X chromosome-linked muscular dystrophy (mdx) in the mouse, Proc. Natl. Acad. Sci. USA., 1984, 81(4), 1189-1192). Selected compounds were tested in longterm treatments of mdx mice, according to the procedures described below.
Mouse strains: C57BL/10scsn and C57BL/10scsn mdx mouse strains were purchased at The Jackson Laboratory (ME, USA) and bred inhouse. Mouse males were sacrificed at the age of 3 or 7 weeks by CO2 asphyxiation.
Treatment: Compounds were dissolved in 50% PEG, 50% saline solution and applied by i.p. injection.
Histology: Tibialis anterior (TA) and diaphragm (Dia) muscles were collected and mounted on cork supports using gum tragacanth (Sigma-Aldrich, Germany). The samples were snap-frozen in melting isopentane and stored at −80° C. 12 μm thick cryosections of the mid-belly region of muscles were prepared. For staining, sections were air dried and fixed with 4% PFA in PBS for 5 minutes, washed 3 times with PBS and incubated over night at 4° C. in PBS containing 2 μg/ml Alexa Fluor™ 488 conjugated wheat-germ agglutinin (WGA-Alexa, Molecular Probes, Eugen, Oreg., USA) to stain membrane-bound and extracellular epitopes and 1 μg/ml 4′,6-diamidino-2-phenylindole (DAPI; Molecular Probes) to stain nuclei.
Image acquisition and analysis: Fluorescence microscopy images of both labels were acquired using a digital camera (ColorView II, Soft Imaging System, Munster, Germany) coupled to a fluorescence microscope (Vanox S, Olympus, Tokyo, Japan). Combination of these two stainings to a composite image, assembling of several images to a complete image of the entire muscle cross-section and further semi-automated analysis was performed using the image analysis program AnalySIS (Soft Imaging System). Image analysis of 1200-2900 muscle fibers in each section was performed in three steps: 1) determination of the muscle fiber boundaries, 2) determination of the muscle fiber size, and 3) determination of the percentage of muscle fibers containing centralized nuclei. Six different geometrical parameters were tested for the determination of the muscle fiber size: (a) the “minimal feret” (the minimum distance of parallel tangents at opposing borders of the muscle fiber), (b) the “area”, (c) the “minimal inner diameter” (the minimum diameter through the center of the muscle fiber), (d) the “minimal diameter” (the minimum diameter of a muscle fiber for angles in the range 0° through 179° with step width 1°, (e) the “minimal outer diameter” (the minimum diameter through the muscle fiber from outer border to outer border), and (f) the “perimeter”. The variance coefficient of the muscle fiber size is defined as follows: variance coefficient=(standard deviation of the muscle fiber size/mean of the muscle fiber size of the section)*1000. For statistical analysis of different variance coefficient values Mann-Whitney U test was used.
Selected Examples of the present invention were active in the mdx mouse model at 10 mg/kg/day, using 3 week old mice and a treatment period of 4 weeks (N=5−10).

Consider `CCNC(=O)C(=O)[C@H](Cc1ccc(Br)cc1)NC(=O)[C@H](CC(C)C)NC(=O)CCCCC1SC[C@@H]2NC(=O)N[C@H]12` (some centres unmarked) [Example 164], for which the IC50 in assay [1] was 0.02 µM; in assay [2] it was 2 µM; in assay [3] it was over 1 µM. In addition, the “BSO EC50” value in assay [4] is “inactive”.
`CCOC(=O)[C@H]1O[C@@H]1C(=O)N[C@@H](CC(C)C)C(=O)NCCC(C)C` [Example E-64-d]: in assay [5], the life-prolonging effect result is listed as “life-prolonging effect”.
As to “Z-Val-Phe-H [MDL-28170, reference compound]”, the IC50 was 40 µM in assay [2] and over 1 µM in assay [3]. Also, the “activity in the mdx mouse model” value in assay [6] was “did not show statistically significant activity”.
